Test results: US20030152557A1, “Methods for inhibiting histone deacetylase-4” (priority 2001, published 2003)
d = 2'-deoxy (DNA); m = 2'-O-methyl

Legend:
A549 = assay: apoptosis, Cell Death Detection ELISA, A549; assay type: cell-based, human; details: 48 hour treatment
Description: (§1) Briefly, human A549 and/or T24 human bladder carcinoma cells were seeded in 10 cm tissue culture dishes one day prior to oligonucleotide treatment. The cell lines were obtained from the American Type Culture Collection (ATCC) (Manassas, Va.) and were grown under the recommended culture conditions. Before the addition of the oligonucleotides, cells were washed with PBS (phosphate buffered saline). Next, lipofectin transfection reagent (GIBCO BRL Mississauga, Ontario, CA), at a concentration of 6.25 μg/ml, was added to serum free OPTIMEM medium (GIBCO BRL, Rockville, Md.), which was then added to the cells. The oligonucleotides to be screened were then added directly to the cells (i.e., one oligonucleotide per plate of cells). Mismatched oligonucleotides were used as controls. The same concentration of oligonucleotide (e.g., 50 nM) was used per plate of cells for each oligonucleotide tested.
(§2) In order to determine the effect of HDAC OSDNs on cell growth and cell death through apoptosis, A549 or T24 cells, MDAmb231 cells, and HMEC cells (ATCC, Manassas, Va.) were treated with HDAC OSDNs as previously described.
(§3) For the apoptosis study, cells were analyzed using the Cell Death Detection ELISA^Plus kit (Roche Diagnostic GmBH, Mannheim, Germany) according to the manufacturer's directions. Typically, 10,000 cells were plated in 96-well tissue culture dishes for 2 hours before harvest and lysis. Each sample was analyzed in duplicate. ELISA reading was done using a MR700 plate reader (DYNEX Technology, Ashford, Middlesex, England) at 410 nm. The reference was set at 490 nm.

T24 = assay: apoptosis, Cell Death Detection ELISA, T24; assay type: cell-based, human; details: 48 hour treatment
Description: as §1, §2, §3

MDAmb231 = assay: apoptosis, Cell Death Detection ELISA, MDAmb231; assay type: cell-based, human; details: 48 hour treatment
Description: as §1, §2, §3

HMEC = assay: apoptosis, Cell Death Detection ELISA, HMEC; assay type: cell-based, human; details: 48 hour treatment
Description: as §1, §2, §3

human HDAC-3 mRNA = assay: Northern blot analysis of HDAC-3 RNA expression; assay type: cell-based; details: T24 cells, 100 nM, 24 hours
Description: Twenty-one phosphorothioate ODNs containing sequences complementary to the 5′ or 3′ UTR of the human HDAC-3 gene (GenBank Accession No. AF039703) were screened as above. […] HDAC-3 MM oligo was created as a control; compared to the antisense oligo, it contains a a 6-base mismatch.
as §1
(§4) Cells were harvested, and total RNAs were analyzed by Northern blot analysis. Briefly, total RNA was extracted using RNeasy miniprep columns (QIAGEN). […]

human HDAC-3 protein = assay: Western blot of HDAC-3 protein expression; assay type: cell-based; details: A549 cells, 50 nM, 48 hours
Description: (§5) OSDN treatment conditions were as previously described.
(§6) Cells were lysed in buffer containing 1% Triton X-100, 0.5% sodium deoxycholate, 5 mM EDTA, 25 mM Tris-HCl, pH 7.5, plus protease inhibitors. Total protein was quantified by the protein assay reagent from Bio-Rad (Hercules, Calif.). 100 ug of total protein was analyzed by SDS-PAGE. Next, total protein was transferred onto a PVDF membrane and probed with various HDAC-specific primary antibodies. Rabbit anti-HDAC-1 (H-51), anti-HDAC-2 (H-54) antibodies (Santa Cruz Biotechnologies, Santa Cruz, Calif.) were used at 1:500 dilution. Rabbit anti-HDAC-3 antibody (Sigma, St. Louis, Mo.) was used at a dilution of 1:1000. Anti-HDAC-4 antibody was prepared as previously described (Wang, S. H. et al., (1999) Mol. Cell. Biol. 19:7816-27), and was used at a dilution of 1:1000. Anti-HDAC-6 antibody was raised by immunizing rabbits with a GST fusion protein containing a fragment of HDAC-6 protein (amino acid #990 to #1216, GenBank Accession No. AAD29048). Rabbit antiserum was tested and found only to react specifically to the human HDAC-6 isoform. HDAC-6 antiserum was used at 1:500 dilution in Western blots to detect HDAC-6 in total cell lysates. Horse Radish Peroxidase conjugated secondary antibody was used at a dilution of 1:5000 to detect primary antibody binding. […]

human cancer cells = assay: cell growth analysis and apoptosis, cancer cells; assay type: cell-based; details: various human cancer cells, 50 nM
Description: as §2, §3
Cells were harvested and cell numbers counted by trypan blue exclusion using a hemocytometer. Percentage of inhibition was calculated as (100-AS cell numbers/control cell numbers)%.

[1] = test system: T24 human bladder cancer cells; assay: inhibition of HDAC activity in whole cells (acetylated histone H-4 Western); assay type: cell-based; details: acetylated histone H-4 in T24 cells, 16 hours
Description: T24 human bladder cancer cells (ATCC, Manassas, Va.) growing in culture were incubated with test compounds for 16 hours. Histones were extracted from the cells by standard procedures (see e.g. Yoshida et al., supra) after the culture period. Twenty μg total core histone protein was loaded onto SDS/PAGE and transferred to nitrocellulose membranes, which were then reacted with polyclonal antibody specific for acetylated histone H-4 (Upstate Biotech Inc., Lake Placid, […].). Horse Radish Peroxidase conjugated secondary antibody was used at a dilution of 1:5000 to detect primary antibody binding. The secondary antibody binding was visualized by use of the Enhanced chemiluminescence (ECL) detection kit (Amersham-Pharmacia Biotech., Inc., Piscataway, N.J.). After exposure to film, acetylated H-4 signal was quantitated by densitometry.

mammalian HDAC = details: Yoshida et al. 1990; cited from earlier work
[2] = test system: murine erythroleukemia cells; details: Yoshida et al. 1987; cited from earlier work
A549 cells = assay: RNase protection assay of p21, GADD45 and Bax mRNA, A549; details: A549, TSA 250 ng/ml 16 hours vs lipofectin
human HDAC-6 RNA = assay: Northern blot analysis of HDAC-6 RNA expression; assay type: cell-based; details: T24 cells, 100 nM, 24 hours
Description: Thirteen phosphorothloate ODNs containing sequences complementary to the 5′ or 3′ untranslated regions of the human HDAC-6 gene (GenBank Accession No. AJ011972) were screened as above. […] HDAC-6 MM oligo was created as a control; compared to the antisense oligo, it contains a 7-base mismatch.
as §1, §4

human HDAC-6 protein = assay: Western blot of HDAC-6 protein expression; assay type: cell-based; details: A549 cells, 50 nM, 48 hours
Description: as §5, §6

human HDAC-4 mRNA = assay: Northern blot analysis of HDAC-4 RNA expression; assay type: cell-based; details: A549 cells, escalating doses, 24 hours
Description: Human cancer A549 cells were treated with escalating doses of AS1, AS2 or MM2 oligos for 24 hours. Total RNAs were harvested for Northern analysis.
Seventeen phosphorothioate ODNs containing sequences complementary to the 5′ or 3′ UTR of the human HDAC-4 gene (GenBank Accession No. AB006626) were screened as above. […] HDAC-4 MM oligo was created as a control; compared to the antisense oligo, it contains a 6-base mismatch.
as §1
Cells were harvested, and total RNAs were analyzed by Northern blot analysis. […]

human HDAC-4 protein = assay: Western blot of HDAC-4 protein expression; assay type: cell-based; details: A549 cells, 48 hours
Description: Human cancer A549 cells were treated with AS1, AS2 or MM2 oligos for 48 hours. Whole cell lysates were analyzed by Western blotting using antibodies specific against human HDAC-4.
as §5
as §6, with “lysates.” for “lysates. Horse Radish Peroxidase conjugated secondary antibody was used at a dilution of 1:5000 to detect primary antibody binding.”

human HDAC-2 RNA = assay: Northern blot analysis of HDAC-2 RNA expression; assay type: cell-based; details: T24 cells, 100 nM, 24 hours
Description: Twenty-four phosphorothioate ODNs containing sequences complementary to the 5′ or 3′ UTR of the human HDAC-2 gene (GenBank Accession No. U31814) were screened as above. […] HDAC-2 MM was created as a control; compared to the antisense oligo, it contains a 7-base mismatch.
as §1, §4

human HDAC-2 protein = assay: Western blot of HDAC-2 protein expression; assay type: cell-based; details: A549 cells, 50 nM, 48 hours
Description: as §5, §6

Human A549 cells = assay: cDNA array analysis of gene transcription; assay type: cell-based; details: 50 nM, two days, vs HDAC-4 mismatch oligo (MM2)
Description: as §1

Molecule: 5′-CGCTTTCCTTGTCATTGACA-3′ (sugars from the 5' end m4 d12 m4, all phosphorothioate, methylation of C and T or U not given here) [HDAC-3, antisense oligo, human HDAC3 3′-UTR]
- Apoptosis A549 (A549; HDAC isotype-specific OSDN): − (“−”: < = 2x fold over non-specific background)
- Apoptosis T24 (T24; HDAC isotype-specific OSDN): − (“−”: < = 2x fold over non-specific background)
- Apoptosis MDAmb231 (MDAmb231; HDAC isotype-specific OSDN): − (“−”: < = 2x fold over non-specific background)
- Apoptosis HMEC (HMEC; HDAC isotype-specific OSDN): − (“−”: < = 2x fold over non-specific background)
- HDAC-3 RNA expression (antisense activity) (human HDAC-3 mRNA): antisense activity to human HDAC-3
- expression of HDAC-3 protein (human HDAC-3 protein): specifically inhibits the expression of the respective HDAC isotype protein
- effect on cancer cell growth and apoptosis (human cancer cells): no effect on cancer cell growth or apoptosis

Molecule: Nc1ccccc1NC(=O)CCCCCCC(=O)c1ccc(-c2ccccc2)cc1 [MG 36 50]
- 4-Ac [1]: 10 µM

Molecule: Cc1ccc(S(=O)(=O)Nc2ccc(/C=C/C(=O)Nc3ccccc3N)cc2)cc1 [MG 37 63]
- 4-Ac [1]: 5 µM

Molecule: CC(/C=C/C(=O)NO)=C\[C@@H](C)C(=O)c1ccc(N(C)C)cc1 [TSA, (R)-Trichostatin A, reference compound]
- Apoptosis A549 (A549; 100 ng/ml): ++ (“++”: 3-5X fold)
- Apoptosis T24 (T24; 100 ng/ml): ++ (“++”: 3-5X fold)
- Apoptosis MDAmb231 (MDAmb231; 100 ng/ml): ++ (“++”: 3-5X fold)
- Apoptosis HMEC (HMEC; 100 ng/ml): + (“+”: 2-3X fold)
- inhibition of mammalian HDAC (mammalian HDAC): potent inhibitor of mammalian HDAC
- induction of differentiation [2]: potent inducer of differentiation in murine erythroleukemia cells
- fold induction of transcription Bax (A549 cells): 0.8 fold
- fold induction of transcription GADD45 (A549 cells): 0.6 fold
- fold induction of transcription p21 (A549 cells): 2.8 fold

Molecule: 5′-CAGGCTGGAATGAGCTACAG-3′ (sugars from the 5' end m4 d12 m4, all phosphorothioate, methylation of C not given here) [HDAC-6, antisense oligo, human HDAC6 3′-UTR]
- Apoptosis A549 (A549; HDAC isotype-specific OSDN): − (“−”: < = 2x fold over non-specific background)
- Apoptosis T24 (T24; HDAC isotype-specific OSDN): − (“−”: < = 2x fold over non-specific background)
- Apoptosis MDAmb231 (MDAmb231; HDAC isotype-specific OSDN): − (“−”: < = 2x fold over non-specific background)
- Apoptosis HMEC (HMEC; HDAC isotype-specific OSDN): − (“−”: < = 2x fold over non-specific background)
- HDAC-6 RNA expression (antisense activity) (human HDAC-6 RNA): antisense activity to human HDAC-6
- expression of HDAC-6 protein (human HDAC-6 protein): specifically inhibits the expression of the respective HDAC isotype protein
- effect on cancer cell growth and apoptosis (human cancer cells): no effect on cancer cell growth or apoptosis

Molecule: 5′-TACAGTCCATGCAACCTCCA-3′ (sugars from the 5' end m4 d12 m4, all phosphorothioate, methylation of C and T or U not given here) [HDAC4 AS2, antisense oligo, human HDAC4 3′-UTR]
- HDAC-4 expression at RNA level (human HDAC-4 mRNA): inbibit HDAC-4 expression at RNA level in a dose-dependent manner
- expression of HDAC-4 protein (human HDAC-4 protein): inbibit HDAC-4 expression at protein level

Molecule: 5′-GCTGAGCTGTTCTGATTTGG-3′ (chemistry not given here) [HDAC-2, antisense oligo, human HDAC2 3′-UTR]
- Apoptosis A549 (A549; HDAC isotype-specific OSDN): − (“−”: < = 2x fold over non-specific background)
- Apoptosis T24 (T24; HDAC isotype-specific OSDN): − (“−”: < = 2x fold over non-specific background)
- Apoptosis MDAmb231 (MDAmb231; HDAC isotype-specific OSDN): − (“−”: < = 2x fold over non-specific background)
- Apoptosis HMEC (HMEC; HDAC isotype-specific OSDN): − (“−”: < = 2x fold over non-specific background)
- HDAC-2 RNA expression (antisense activity) (human HDAC-2 RNA): antisense activity to human HDAC-2
- expression of HDAC-2 protein (human HDAC-2 protein): specifically inhibits the expression of the respective HDAC isotype protein
- effect on cancer cell growth and apoptosis (human cancer cells): minimal effect on cancer cell growth inhibition

Molecule: CC(/C=C/C(=O)Nc1ccccc1N)=C\C(C)C(=O)c1ccc(N(C)C)cc1 (stereo not drawn) [MG 24 29]
- 4-Ac [1]: 1 µM

Molecule: 5-GCTGCCTGCCGTGCCCACCC-3′ (sugars from the 5' end m4 d12 m4, all phosphorothioate, methylation of C and T or U not given here) [HDAC-4 AS1, antisense oligo, human HDAC4 5′-UTR]
- fold change CDK4 (Human A549 cells): −3 fold
- fold change Egr-1 (Human A549 cells): 3 fold
- fold change GADD45 (Human A549 cells): 3 fold
- fold change GADD153 (Human A549 cells): 6 fold
- fold change IL-15 (Human A549 cells): 4 fold
- fold change IRF (Human A549 cells): 2 fold
- fold change Notch-4 (Human A549 cells): −3 fold
- fold change PLK (Human A549 cells): −4 fold
- fold change basic FGF (Human A549 cells): 2 fold
- fold change cyclin A2 (Human A549 cells): −3 fold
- fold change cyclin B1 (Human A549 cells): −3 fold
- fold change p21 (Human A549 cells): 4 fold
- fold change topo II α (Human A549 cells): −5 fold
- HDAC-4 expression at RNA level (human HDAC-4 mRNA): inbibit HDAC-4 expression at RNA level in a dose-dependent manner
- expression of HDAC-4 protein (human HDAC-4 protein): inbibit HDAC-4 expression at protein level

Molecule: Nc1ccccc1NC(=O)CCCCCCC(=O)c1ccc(-c2ccccc2)nc1 [MG 38 69]
- 4-Ac [1]: 5 µM
